Test results taken from US9850283B2, “Macrocyclic inhibitors of the PD-1/PD-L1 and CD80(B7-1)/PD-L1 protein/protein interactions” (BRISTOL-MYERS SQUIBB COMPANY, priority 2013, dated 2017).
Where two headings read alike, the source gives them in different places. Positions of bridges follow the written chain, without caps; N, C: chain ends. Non-standard residues stand in square brackets, D forms with d. Residues, ends and D or L forms follow the SMILES beside them. Phe(3-OMe) = COc1cccc(C[C@H](N)C(=O)O)c1; Hyp = O=C(O)[C@@H]1C[C@@H](O)CN1; NMeF = CN[C@@H](Cc1ccccc1)C(=O)O; NMeL = CN[C@@H](CC(C)C)C(=O)O; NMeNle = CCCC[C@H](NC)C(=O)O; NMeA = CN[C@@H](C)C(=O)O; Dab = NCC[C@H](N)C(=O)O; Dap = NC[C@H](N)C(=O)O; Sar = CNCC(=O)O

Key:
Human PD-L1/PD-1 = target: T1, Human PD-L1/PD-1 (Homo sapiens, UniProt Q9NZQ7); experiment: HTRF PD-1-Ig/PD-L1-His binding assay (human PD-L1); details: cluster symbol; read-out: HTRF IC50 cluster
T1 construct: made in house; host or cells: HEK293T
Outline: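 Steps: truncated PD-1-Ig and PD-L1-His fusions are incubated in dPBS containing 0.1% (w/v) BSA and 0.05% (v/v) Tween-20. Detection antibodies are then added (Eu cryptate anti-Ig at 1 nM final, APC anti-His at 20 nM final), and time-resolved FRET is measured.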

[1] = target: T2, LK35.2-hPD-L1 cells / PE-labeled PD-1-Ig (Homo sapiens, UniProt Q9NZQ7); experiment: LK35.2-hPD-L1 cell binding high-content screening assay; type: cell-based; details: cluster symbol, read-out: CBA IC50 cluster
T2 construct: expressed in transfected cells; host or cells: LK35.2 mouse B cell line
Outline: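 Using overnight-cultured LK35.2-hPD-L1 mouse B cells, compound was co-incubated with phycoerythrin-tagged human PD-1-Ig (final 1 nM) at 37 °C for one hour. Unbound label was removed by triple dPBS washing prior to high-content image acquisition and analysis.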

[2] = cell line of CBA not given (LK35.2-hPD-L1 or 293T-hPD-L1)
[3] = cell binding assay, cell line not given

T1 sequence (Q9NZQ7 with tags, fused parts or gaps): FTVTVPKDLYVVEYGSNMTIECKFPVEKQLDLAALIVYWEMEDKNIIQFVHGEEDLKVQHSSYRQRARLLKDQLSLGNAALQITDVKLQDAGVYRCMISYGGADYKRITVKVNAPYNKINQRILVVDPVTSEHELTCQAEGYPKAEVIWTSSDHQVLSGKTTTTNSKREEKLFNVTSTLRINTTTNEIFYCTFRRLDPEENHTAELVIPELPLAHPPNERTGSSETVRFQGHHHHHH
T2 sequence (Q9NZQ7 19-290): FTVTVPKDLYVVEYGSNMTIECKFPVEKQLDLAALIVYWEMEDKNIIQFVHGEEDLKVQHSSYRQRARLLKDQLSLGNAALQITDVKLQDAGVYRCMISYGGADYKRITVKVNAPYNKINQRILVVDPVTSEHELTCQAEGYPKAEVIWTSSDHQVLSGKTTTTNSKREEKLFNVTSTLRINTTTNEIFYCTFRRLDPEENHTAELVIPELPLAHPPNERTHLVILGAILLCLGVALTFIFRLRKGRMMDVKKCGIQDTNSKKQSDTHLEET

Row | Structure (SMILES) | IC50 (Human PD-L1/PD-1) | IC50 [1, 2] | IC50 [1, 3]
1 | CCCC[C@H]1C(=O)N(C)CC(=O)N[C@@H](CC(=O)O)C(=O)N[C@@H](C(C)C)C(=O)N(C)[C@@H](Cc2ccccc2)C(=O)N[C@@H](Cc2ccc(O)cc2)C(=O)N(C)CC(=O)N[C@@H](Cc2c[nH]c3ccccc23)C(=O)N[C@@H](Cc2ccc(O)cc2)C(=O)N[C@@H](CCCCN)C(=O)N[C@H](C(=O)NCC(N)=O)CSCC(=O)N[C@@H](Cc2ccccc2)C(=O)N(C)[C@@H](Cc2ccccc2)C(=O)N1C [Example 3164] (HELM PEPTIDE1{[O=C(C[*:3])[*:2]].F.[meF].[CCCC[C@@H](C(=O)[*:2])N(C)[*:1]].[Sar].D.V.[meF].Y.[Sar].W.Y.K.C.G.[am]}$PEPTIDE1,PEPTIDE1,1:R3-14:R3$$$V2.0) | 6.76 to 30.3 nM | 4.78 to 72.9 nM | –
2 | CCCC[C@H]1C(=O)N[C@@H](CN)C(=O)N[C@H](C(=O)NCC(N)=O)CSCC(=O)N[C@@H](Cc2ccc(O)cc2)C(=O)N(C)[C@@H](C)C(=O)N[C@@H](CC(N)=O)C(=O)N2CCC[C@H]2C(=O)N[C@@H](Cc2c[nH]cn2)C(=O)N[C@@H](CCC(=O)O)C(=O)N2C[C@H](O)C[C@H]2C(=O)N[C@@H](Cc2c[nH]c3ccccc23)C(=O)N[C@@H](CCN)C(=O)N[C@@H](Cc2c[nH]c3ccccc23)C(=O)N(C)[C@@H](CC(C)C)C(=O)N1C [Example 5143] ({CH2CO}-Y[NMeA]NPHE[Hyp]W[Dab]W[NMeL][NMeNle][Dap]CG-NH2; thioether N-14) | 0.385 to 6.74 nM | – | 4.78 to 72.9 nM
3 | CCCC[C@H]1C(=O)N(C)[C@@H](CCCC)C(=O)N[C@@H](CCCNC(=N)N)C(=O)N[C@H](C(=O)NCC(N)=O)CSCC(=O)N[C@@H](Cc2ccc(O)cc2)C(=O)N(C)[C@@H](C)C(=O)N[C@@H](CC(N)=O)C(=O)N2CCC[C@H]2C(=O)N[C@@H](Cc2cnc[nH]2)C(=O)N[C@@H](CC(C)C)C(=O)N2CCC[C@H]2C(=O)N[C@@H](Cc2c[nH]c3ccccc23)C(=O)N[C@@H](CO)C(=O)N[C@@H](Cc2c[nH]c3ccccc23)C(=O)N1C [Example 1016] ({CH2CO}-Y[NMeA]NPHLPWSW[NMeNle][NMeNle]RCG-NH2; thioether N-14) | 0.385 to 6.74 nM | 0.158 to 4.71 nM | –

Other lines, results leading:

Row | IC50 (Human PD-L1/PD-1) | IC50 [1, 2] | IC50 [1, 3] | Structure (SMILES)
4 | 0.385 to 6.74 nM | – | > 74.3 nM | CCCC[C@H]1C(=O)N(C)[C@@H](CCCC)C(=O)N[C@@H](CCN)C(=O)N[C@H](C(=O)NCC(N)=O)CSCC(=O)N[C@@H](Cc2ccc(O)cc2)C(=O)N(C)[C@@H](C)C(=O)N[C@@H](CC(=O)O)C(=O)N2CCC[C@H]2C(=O)N[C@@H](Cc2cnc[nH]2)C(=O)N[C@@H](CCC(N)=O)C(=O)N2C[C@H](O)C[C@H]2C(=O)N[C@@H](Cc2c[nH]c3ccccc23)C(=O)N[C@@H](CCN)C(=O)N[C@@H](Cc2c[nH]c3ccccc23)C(=O)N1C [Example 5046] ({CH2CO}-Y[NMeA]DPHQ[Hyp]W[Dab]W[NMeNle][NMeNle][Dab]CG-NH2; thioether N-14)
5 | 6.76 to 30.3 nM | 4.78 to 72.9 nM | – | CCCC[C@H]1C(=O)N(C)CC(=O)N[C@@H](CC(=O)O)C(=O)N[C@@H](C(C)C)C(=O)N(C)[C@@H](Cc2ccccc2)C(=O)N[C@@H](Cc2ccc(O)cc2)C(=O)N(C)CC(=O)N[C@@H](Cc2c[nH]c3ccccc23)C(=O)N[C@@H](Cc2ccc(O)cc2)C(=O)N[C@@H](CC(C)C)C(=O)N[C@H](C(=O)NCC(N)=O)CSCC(=O)N[C@@H](Cc2cccc(OC)c2)C(=O)N(C)[C@@H](Cc2ccccc2)C(=O)N1C [Example 3095] ({CH2CO}-[Phe(3-OMe)][NMeF][NMeNle][Sar]DV[NMeF]Y[Sar]WYLCG-NH2; thioether N-13)
6 | 0.385 to 6.74 nM | – | 0.158 to 4.71 nM | CCCC[C@H]1C(=O)N(C)[C@@H](CCCC)C(=O)N[C@@H](CCCNC(=N)N)C(=O)N[C@H](C(=O)NCC(=O)NCC(N)=O)CSCC(=O)N[C@@H](Cc2ccc(O)cc2)C(=O)N(C)[C@@H](C)C(=O)N[C@@H](CC(N)=O)C(=O)N2CCC[C@H]2C(=O)N[C@@H](Cc2cnc[nH]2)C(=O)N[C@@H](CC(C)C)C(=O)N2C[C@H](O)C[C@H]2C(=O)N[C@@H](Cc2c[nH]c3ccccc23)C(=O)N[C@@H](CO)C(=O)N[C@@H](Cc2c[nH]c3ccccc23)C(=O)N1C [Example 6017] ({CH2CO}-Y[NMeA]NPHL[Hyp]WSW[NMeNle][NMeNle]RCGG-NH2; thioether N-14)
